According to patent US10524472B2, “Elicitor peptides having disrupted hypersensitive response box and use thereof” (Plant Health Care, Inc., priority 2014, dated 2020):
Marks after values point to notes of the source that are not given here.

These substances were tested on tobacco mosaic virus (TMV) (assay: Induction of resistance to tobacco mosaic virus in tobacco). Settings: covered leaf.
Assay type: in vivo

Question: GGLTLTGVDQKLMKILNALVQ (P25-9D) was tested. Which “efficacy on covered leaves, systemic immune response” value (shortened to “efficacy on covered leaves”) did it give?
Answer: reduced efficacy on covered leaves

Question: QDPMQASMQLLEDLVKLLK (P14d-7S) was tested. Which “efficacy on covered leaves” value did it give?
Answer: reduced efficacy on covered leaves

Question: SEEEEEDAQLLAQLLKSLL (P18min-7D) was tested. Which “efficacy on covered leaves” value did it give?
Answer: reduced efficacy on covered leaves

Same assay, conditions: foliar spray

Question: Which “TMV response / effectiveness against TMV infection (summary of Table 22)” value (“TMV response / effectiveness” below) does the source give for QDPMQALMQLLEDLVKLDK (P14d-18D) here?
Answer: weaker TMV responses

Question: With SEEEEEDAQLLAQLLKSLL (P18min-7D) as the substance, how does the “TMV response / effectiveness” value read?
Answer: weaker TMV responses

Question: SEEEEELAQLSAQLLKSLL (P18min-11S) was tested. Which “TMV response / effectiveness” value did it give?
Answer: weaker TMV responses

Question: For SEEEEELKALLKSIARLL (P19min-13S), which “TMV response / effectiveness” value is on record?
Answer: poor immune activation

Same assay, conditions: foliar spray, listed as P19 min-135

Question: SEEEEELKALLKSIARLL (P19min-13S) was tested. Which “TMV response / effectiveness” value did it give?
Answer: weaker TMV responses

Same assay, conditions: spray 10 ug/ml, TMV 3 days post-treatment, scored 3 days after inoculation

Question: What does the source list for “QAGPQSANKTGNVDDANNQDPAQALAQLLEDLV (P14-22A,26A)”?
Answer: Effectiveness Covered (%) (decline in TMV lesions vs UTC, systemic response): 93* %; Effectiveness Uncovered (%) (decline in TMV lesions vs UTC, local response): 92* %

Question: What does the source list for “QAGPQSANKTGNVDDANNQDPLQAAAQLLEDLV (P14-22L,25-26A)”?
Answer: Effectiveness Covered (%) (decline in TMV lesions vs UTC, systemic response): 75* %; Effectiveness Uncovered (%) (decline in TMV lesions vs UTC, local response): 87* %

Question: “QAGPQSANKTGNVDDANNQDPLQALAQLAEDLV (P14-22L,26,29A)” was tested. Which “Effectiveness Covered (%) (decline in TMV lesions vs UTC, systemic response)” value (from here on “Effectiveness Covered (%)”) did it give?
Answer: 70* %

Question: What about the “Effectiveness Uncovered (%) (decline in TMV lesions vs UTC, local response)” value (“Effectiveness Uncovered (%)” below) of the same substance?
Answer: 85* %

Question: “QAGPQSANKTGNVDDANNQDPLQALLQLAEDAV (p14-22L,29,32A) [P14-22L,28,32A]” was tested. Which “Effectiveness Covered (%)” value did it give?
Answer: 37* %

Question: What about the “Effectiveness Uncovered (%)” value of the same substance?
Answer: 71* %

Question: How did the “Effectiveness Covered (%)” value turn out when “QAGPQSANKTGNVDDANNQDPLQALLQLLEDAA (P14-22L,32-33A)” was run?
Answer: 69* %

Question: What about the “Effectiveness Uncovered (%)” value of the same substance?
Answer: 91* %

Question: What does the source list for “QAGPQSANKTGNVDDANNQDPMQALMQLLED (P14-dc2)”?
Answer: Effectiveness Covered (%) (decline in TMV lesions vs UTC, systemic response): 56%; Effectiveness Uncovered (%) (decline in TMV lesions vs UTC, local response): 76* %

Question: “QAGPQSANKTGNVDDANNQDPMQALMQLLEDL (P14-dc1)” was tested. Which “Effectiveness Covered (%)” value did it give?
Answer: 46%

Question: And the “Effectiveness Uncovered (%)” value?
Answer: 65* %

Same assay, conditions: spray 20 ug/ml, TMV 3 days post-treatment, scored 3 days after inoculation

Question: What does the source list for GGLTLTGVDQKLMKILNALVQ (P25-9D)?
Answer: Effectiveness Covered (%) (decline in TMV lesions vs UTC, systemic response): 55%; Effectiveness Uncovered (%) (decline in TMV lesions vs UTC, local response): 78* %

Question: KPNDSQSNIAKLISALI (P15-62) was tested. Which “Effectiveness Covered (%)” value did it give?
Answer: −122%

Question: What about the “Effectiveness Uncovered (%)” value of the same substance?
Answer: 94* %

Question: KPNDSQSNIAKLISALIMSLSQ (P15b-21S) was tested. Which “Effectiveness Covered (%)” value did it give?
Answer: 97* %

Question: And the “Effectiveness Uncovered (%)” value?
Answer: 100* %

Question: What does the source list for KPNDSQSNIAKSISALIMSLLQ (P15b-12S)?
Answer: Effectiveness Covered (%) (decline in TMV lesions vs UTC, systemic response): 47%; Effectiveness Uncovered (%) (decline in TMV lesions vs UTC, local response): 76* %

Question: What does the source list for PSPFTQMLMHIVGEDLQAQN (P6a-15D)?
Answer: Effectiveness Covered (%) (decline in TMV lesions vs UTC, systemic response): 74* %; Effectiveness Uncovered (%) (decline in TMV lesions vs UTC, local response): 74* %

Question: Which “Effectiveness Covered (%)” value does the source give for PSPFTQMLMHSVGEILQAQN (P6a-11S) here?
Answer: 88* %

Question: What about the “Effectiveness Uncovered (%)” value of the same substance?
Answer: 71* %

Question: Which “Effectiveness Covered (%)” value does the source give for “QAGPQSANKTGNVDDANNQDPAQALLQLLEDLV (P14-22A,26L)” here?
Answer: 62%

Question: And the “Effectiveness Uncovered (%)” value?
Answer: 48%

Question: Which “Effectiveness Covered (%)” value does the source give for “QAGPQSANKTGNVDDANNQDPEQALLQLLEDLV (P14-22E,26L)” here?
Answer: 84* %

Question: What about the “Effectiveness Uncovered (%)” value of the same substance?
Answer: 61* %

Question: “QAGPQSANKTGNVDDANNQDPE_ALAQLLEDLV (QAGPQSANKTGNVDDANNQDPEALAQLLEDLV; P14-22E,26A)” was tested. Which “Effectiveness Covered (%)” value did it give?
Answer: 88* %

Question: And the “Effectiveness Uncovered (%)” value?
Answer: 89* %

Question: With “QAGPQSANKTGNVDDANNQDPLQALAQLLEDLV (P14-22L,26A)” as the substance, how does the “Effectiveness Covered (%)” value read?
Answer: 83* %

Question: And the “Effectiveness Uncovered (%)” value?
Answer: 72* %

Question: With QDPAQALEQLLEDLVKSLK (p14f-17S) as the substance, how does the “Effectiveness Covered (%)” value read?
Answer: 84* %

Question: What about the “Effectiveness Uncovered (%)” value of the same substance?
Answer: 94* %

Question: QDPMQADMQLLEDLVKLLK (P14d-7D) was tested. Which “Effectiveness Covered (%)” value did it give?
Answer: 55* %

Question: And the “Effectiveness Uncovered (%)” value?
Answer: 71* %

Question: With QDPMQALMQDLEDLVKLLK (P14d-10D) as the substance, how does the “Effectiveness Covered (%)” value read?
Answer: 84* %

Question: What about the “Effectiveness Uncovered (%)” value of the same substance?
Answer: 84* %

Question: How did the “Effectiveness Covered (%)” value turn out when QDPMQALMQLDEDLVKLLK (P14d-11D) was run?
Answer: 87* %

Question: What about the “Effectiveness Uncovered (%)” value of the same substance?
Answer: 81* %

Question: QDPMQALMQLLEDDVKLLK [P14d-14D] was tested. Which “Effectiveness Covered (%)” value did it give?
Answer: 35%

Question: What about the “Effectiveness Uncovered (%)” value of the same substance?
Answer: 84* %

Question: For QDPMQALMQLLEDLDKLLK (P14d-15D), which “Effectiveness Covered (%)” value is on record?
Answer: 74* %

Question: And the “Effectiveness Uncovered (%)” value?
Answer: 87* %

Question: With QDPMQALMQLLEDLVKDLK (P14d-17D) as the substance, how does the “Effectiveness Covered (%)” value read?
Answer: 65* %

Question: And the “Effectiveness Uncovered (%)” value?
Answer: 68* %

Question: QDPMQALMQLLEDLVKLDK (P14d-18D) was tested. Which “Effectiveness Covered (%)” value did it give?
Answer: 32%

Question: What about the “Effectiveness Uncovered (%)” value of the same substance?
Answer: 52%

Question: QDPMQASMQLLEDLVKLLK (P14d-7S) was tested. Which “Effectiveness Covered (%)” value did it give?
Answer: 23%

Question: What about the “Effectiveness Uncovered (%)” value of the same substance?
Answer: −112%

Question: With QQPIDRQTIEQMAQLLAQLL (P18-8) as the substance, how does the “Effectiveness Covered (%)” value read?
Answer: 78* %

Question: What about the “Effectiveness Uncovered (%)” value of the same substance?
Answer: 55%

Question: How did the “Effectiveness Covered (%)” value turn out when SEEEEEALEQLLEDLVKLL (P14-31) was run?
Answer: 87* %

Question: And the “Effectiveness Uncovered (%)” value?
Answer: 85* %

Question: What does the source list for SEEEEEDAQLLAQLLKSLL (P18min-7D)?
Answer: Effectiveness Covered (%) (decline in TMV lesions vs UTC, systemic response): 29%; Effectiveness Uncovered (%) (decline in TMV lesions vs UTC, local response): 26%

Question: With SEEEEEEEIAKLISALIESLL (P15-60) as the substance, how does the “Effectiveness Covered (%)” value read?
Answer: 13%

Question: And the “Effectiveness Uncovered (%)” value?
Answer: 55%

Question: Which “Effectiveness Covered (%)” value does the source give for “SEEEEEEEIAKLIS_LIESLL (SEEEEEEEIAKLISLIESLL; P15-61)” here?
Answer: 7%

Question: What about the “Effectiveness Uncovered (%)” value of the same substance?
Answer: 55* %

Question: For SEEEEEEIAKLISALI (P15-63), which “Effectiveness Covered (%)” value is on record?
Answer: 74* %

Question: And the “Effectiveness Uncovered (%)” value?
Answer: 90* %

Question: For SEEEEELAQLLAQLL (P18-9), which “Effectiveness Covered (%)” value is on record?
Answer: 52%

Question: And the “Effectiveness Uncovered (%)” value?
Answer: 65* %

Question: How did the “Effectiveness Covered (%)” value turn out when SEEEEELAQLSAQLLKSLL (P18min-11S) was run?
Answer: −274%

Question: And the “Effectiveness Uncovered (%)” value?
Answer: −90%

Question: Which results are given for SEEEEELEQLLEDLV (P14-39)?
Answer: Effectiveness Covered (%) (decline in TMV lesions vs UTC, systemic response): 66* %; Effectiveness Uncovered (%) (decline in TMV lesions vs UTC, local response): 72* %

Question: Which results are given for SEEEEELKALLKSIARLL (P19min-13S)?
Answer: Effectiveness Covered (%) (decline in TMV lesions vs UTC, systemic response): −70%; Effectiveness Uncovered (%) (decline in TMV lesions vs UTC, local response): 35%

Question: Which “Effectiveness Covered (%)” value does the source give for SEEEEELKALSKLIARLL (P19min-11S) here?
Answer: 45%

Question: What about the “Effectiveness Uncovered (%)” value of the same substance?
Answer: 71* %

Question: Which “Effectiveness Covered (%)” value does the source give for SEEEEELKASLKLIARLL (P19min-10S) here?
Answer: 94* %

Question: What about the “Effectiveness Uncovered (%)” value of the same substance?
Answer: 81* %

Question: SEEEEELLQLLEDLV (P14-41) was tested. Which “Effectiveness Covered (%)” value did it give?
Answer: 61* %

Question: What about the “Effectiveness Uncovered (%)” value of the same substance?
Answer: 86* %

Question: With “SEEEEELQKLLK_ILEALV (SEEEEELQKLLKILEALV; P25-9)” as the substance, how does the “Effectiveness Covered (%)” value read?
Answer: 87* %

Question: And the “Effectiveness Uncovered (%)” value?
Answer: 68%
